In brackets after ≈: the same amount, converted by molar mass. Like-named read-outs stand apart in the source and are kept apart here.
Tests used:
S. aureus GC 1131 = assay: MIC, broth microdilution; settings: Staphylococcus aureus, GC1131, S. aureus GC 1131
S. aureus GC 6466 = assay: MIC, broth microdilution; settings: Staphylococcus aureus, GC6466, S. aureus GC 6466
S. aureus GC 1079 = assay: MIC, broth microdilution; settings: Staphylococcus aureus, GC1079, S. aureus GC 1079
E. coli GC 2234 = assay: MIC, broth microdilution; settings: Escherichia coli, GC2234, E. coli GC 2234
S. pyogenes GC 4563 = assay: MIC, broth microdilution; settings: Streptococcus pyogenes, GC4563, S. pyogenes GC 4563
S. aureus GC 6469 = assay: MIC, broth microdilution; settings: Staphylococcus aureus, GC6469, S. aureus GC 6469
Staph. = assay: Range of MIC for Staph. strains, including MRSA; settings: Staphylococcus aureus, MRSA
E. coli GC 2233 = assay: MIC, broth microdilution; settings: Escherichia coli, GC2233, E. coli GC 2233
E. faecium GC 2243 = assay: MIC, broth microdilution; settings: Enterococcus faecium, GC2243, E. faecium GC 2243
E. coli GC 1073 = assay: MIC, broth microdilution; settings: Escherichia coli, GC1073, E. coli GC 1073
E. faecalis GC 4555 = assay: MIC, broth microdilution; settings: Enterococcus faecalis, GC4555, E. faecalis GC 4555
E. coli GC 2236 = assay: MIC, broth microdilution; settings: Escherichia coli, GC2236, E. coli GC 2236
c. albicans GC 3066 = assay: MIC, broth microdilution
E. coli GC 6465 = assay: MIC, broth microdilution; settings: Escherichia coli, GC6465, E. coli GC 6465
S. epidermidis GC 4935 = assay: MIC, broth microdilution; settings: Staphylococcus epidermidis, GC4935, S. epidermidis GC 4935
S. pneumoniae+ GC 4465 = assay: MIC, broth microdilution; settings: Streptococcus pneumoniae, S. pneumoniae+ GC 4465
S. aureus GC 4536 = assay: MIC, broth microdilution; settings: Staphylococcus aureus, GC4536, S. aureus GC 4536
Procedure: Antimicrobial susceptibility testing. The in vitro activities of the antibiotics are determined by the broth microdilution method as recommended by the National Committee for Clinical Laboratory Standards (NCCLS) (1). Mueller-Hinton II broth (MHBII)(BBL Cockeysville, Md.) is the medium employed in the testing procedures. Microtiter plates containing serial dilutions of each antimicrobial agent are inoculated with each organism to yield the appropriate density (10^5 CFU/ml) in a 100 μl final volume. The plates are incubated for 18-22 hours at 35° C. in ambient air.
Representative compounds were first incubated in mouse serum for an hour prior to the in vitro testing against a panel of selected gram-positive and gram-negative bacteria strains. All compounds were also pre-incubated in water for an hour prior to testing as control. Representative compounds of Formula I were incubated in human serum prior to MIC determination.

E. coli GC 2272 = assay: MIC, broth microdilution; settings: Escherichia coli, GC2272, E. coli GC 2272
E. faecalis GC 2265 = assay: MIC, broth microdilution; settings: Enterococcus faecalis, GC2265, E. faecalis GC 2265

CCCN(CC(=O)Nc1cc(N(C)C)c2c(c1O)C(=O)C1=C(O)[C@]3(O)C(=O)C(C(N)=O)=C(O)[C@@H](N(C)C)[C@@H]3C[C@@H]1C2)C(=O)OCc1ccccc1 [Example 14, benzyl 2-{[(5aR,6aS,7S,10aS)-9-(aminocarbonyl)-4,7-bis(dimethylamino)-1,8,10a,11-tetrahydroxy-10,12-dioxo-5,5a,6,6a,7,10,10a,12-octahydrotetracen-2-yl]amino}-2-oxoethyl(propyl)carbamate]
MIC (S. aureus GC 1131; Mouse Serum pre-incubation): 1 mg/L (≈ 1.42 µM)
MIC (S. aureus GC 1131; Water pre-incubation): 2 mg/L (≈ 2.83 µM)
MIC (S. aureus GC 6466; Mouse Serum pre-incubation): 2 mg/L (≈ 2.83 µM)
MIC (S. aureus GC 6466; Water pre-incubation): 8 mg/L (≈ 11.3 µM)
MIC (S. aureus GC 1079; Mouse Serum pre-incubation): 1 mg/L (≈ 1.42 µM)
MIC (S. aureus GC 1079; Water pre-incubation): 2 mg/L (≈ 2.83 µM)
MIC (E. coli GC 2234; Mouse Serum pre-incubation): > 64 mg/L
MIC (E. coli GC 2234; Water pre-incubation): > 64 mg/L
MIC (S. pyogenes GC 4563; Mouse Serum pre-incubation): 2 mg/L (≈ 2.83 µM)
MIC (S. pyogenes GC 4563; Water pre-incubation): 4 mg/L (≈ 5.67 µM)
MIC (S. aureus GC 6469; Mouse Serum pre-incubation): 2 mg/L (≈ 2.83 µM)
MIC (S. aureus GC 6469; Water pre-incubation): 4 mg/L (≈ 5.67 µM)
MIC (Staph.; read-out: Range of MIC, Staph (Mouse Serum)): 1 to 8 mg/L (≈ 1.42 to 11.3 µM)
MIC (Staph.; read-out: Range of MIC, Staph (Water)): 2 to 8 mg/L (≈ 2.83 to 11.3 µM)
MIC (E. coli GC 2233; Mouse Serum pre-incubation): > 64 mg/L
MIC (E. coli GC 2233; Water pre-incubation): > 64 mg/L
MIC (E. faecium GC 2243; Mouse Serum pre-incubation): 2 mg/L (≈ 2.83 µM)
MIC (E. faecium GC 2243; Water pre-incubation): 4 mg/L (≈ 5.67 µM)
MIC (E. coli GC 1073; Mouse Serum pre-incubation): > 64 mg/L
MIC (E. coli GC 1073; Water pre-incubation): > 64 mg/L
MIC (E. faecalis GC 4555; Mouse Serum pre-incubation): 2 mg/L (≈ 2.83 µM)
MIC (E. faecalis GC 4555; Water pre-incubation): 8 mg/L (≈ 11.3 µM)
MIC (E. coli GC 2236; Mouse Serum pre-incubation): > 64 mg/L
MIC (E. coli GC 2236; Water pre-incubation): > 64 mg/L
MIC (c. albicans GC 3066; Candida albicans, GC3066): > 64 mg/L
MIC (c. albicans GC 3066; c. albicans GC 3066, Water pre-incubation): >64 UG/ML
MIC (E. coli GC 6465; Mouse Serum pre-incubation): > 64 mg/L
MIC (E. coli GC 6465; Water pre-incubation): > 64 mg/L
MIC (S. epidermidis GC 4935; Mouse Serum pre-incubation): 8 mg/L (≈ 11.3 µM)
MIC (S. epidermidis GC 4935; Water pre-incubation): 8 mg/L (≈ 11.3 µM)
MIC (S. pneumoniae+ GC 4465; Mouse Serum pre-incubation): 4 mg/L (≈ 5.67 µM)
MIC (S. pneumoniae+ GC 4465; Water pre-incubation): 4 mg/L (≈ 5.67 µM)
MIC (S. aureus GC 4536; Mouse Serum pre-incubation): 2 mg/L (≈ 2.83 µM)
MIC (S. aureus GC 4536; Water pre-incubation): 2 mg/L (≈ 2.83 µM)
MIC (E. coli GC 2272; Mouse Serum pre-incubation): > 64 mg/L
MIC (E. coli GC 2272; Water pre-incubation): > 64 mg/L
MIC (E. faecalis GC 2265; Mouse Serum pre-incubation): 2 mg/L (≈ 2.83 µM)
MIC (E. faecalis GC 2265; Water pre-incubation): 8 mg/L (≈ 11.3 µM)

— patent US20070049564A1 (Wyeth, priority 2005, published 2007)
